Laboratory results as given in patent US10633383B2, “Compounds for the treatment, alleviation or prevention of disorders associated with Tau aggregates” (AC Immune SA, priority 2018, dated 2020).
pEC50: −log10 of the molar value.

Assays:
[1] = biological target: T1, recombinant full-length (fl)Tau (human Tau 2N4R) aggregates (Homo sapiens, UniProt P10636); assay: Full-length Tau (flTau) disaggregation assay by Thioflavin T (ThT); type: biochemical; conditions: 2 μM flTau aggregates, 30 minutes at RT, ThT fluorescence
T1 construct: 35 μM of recombinant full-length (fl)Tau in PBS were aggregated; made in house; host or cells: bacteria
Method: Full-Length Tau (flTau) Disaggregation Assay by Thioflavin T (ThT)
(§1) The longest isoform of human Tau (2N4R; 441 amino acids) was expressed in bacteria and purified. For the Tau disaggregation assay by ThT, 35 μM of recombinant full-length (fl)Tau in PBS were aggregated for 24 hours at 37° C. in presence of 50 μM of heparin (Sigma-Aldrich) and 10 mM of DTT (Sigma-Aldrich) under shaking at 750 RPM. Compounds were dissolved in anhydrous dimethyl sulfoxide (DMSO, Sigma-Aldrich) to reach a concentration of 10 mM. flTau aggregates and serial dilutions of compounds were mixed together in PBS (volume 50 μL) to a final concentration of 2 μM of flTau aggregates and from 160 to 0.04 μM of compounds. The mixture was incubated for 30 minutes at room temperature (RT), then 40 μL of this mixture were transferred into a black 384-well plate assay (Perkin-Elmer) and mixed with 10 μL of 100 μM ThT in 250 mM glycine (both from Sigma-Aldrich) in PBS. Fluorescence (relative fluorescence units; RFU) was measured in monoplicate or duplicate on a Tecan reader (excitation: 440 nm; emission: 485 nm). Percentage of flTau disaggregation was then calculated and the half maximal effective concentration (EC50) was determined using GraphPad Prism version 5 (GraphPad Software) assuming a one-binding site fitting model.

[2] = biological target: T2, Tau K18 fragment (amino acids 244 to 372 of human Tau441) aggregates (Homo sapiens, UniProt P10636); assay: Tau K18 disaggregation assay by ThT; type: biochemical; conditions: 2 μM K18 aggregates, 30 minutes at RT, ThT fluorescence
T2 construct: encompassing amino acids 244 to 372 of the longest isoform (2N4R) of human Tau441; host or cells: bacteria
Method: Tau K18 Disaggregation Assay by ThT
as §1, with “Compounds” for “The longest isoform of human Tau (2N4R; 441 amino acids) was expressed in bacteria and purified. For the Tau disaggregation assay by ThT, 35 μM of recombinant full-length (fl)Tau in PBS were aggregated for 24 hours at 37° C. in presence of 50 μM of heparin (Sigma-Aldrich) and 10 mM of DTT (Sigma-Aldrich) under shaking at 750 RPM. Compounds”, “K18” for “flTau”, “and” for “and the”

[3] = system: human neuroblastoma cell line overexpressing the full-length form of human Tau carrying the P301L mutation; assay: Reduction of intracellular Tau aggregation (AlphaLISA); type: cell-based; conditions: compound at 5 μM, 24 h, aggregated Tau normalized to total Tau, relative to DMSO-treated cells
Method: Reduction of Intracellular Tau Aggregation
A human neuroblastoma cell line overexpressing the full-length form of human Tau carrying the P301L mutation was cultured in complete medium [DMEM-F12 4.5 g/L Glutamax (Invitrogen), 15% FBS (Biochrom), 1% Peni/Strep (Invitrogen) supplemented with 2.5 μg/ml of G418 (Sigma-Aldrich) selection antibiotic]. The day before the experiment 5×10^5 cells/well were plated in a 6 well plate in 3 mL of complete medium. The next day, cells were incubated with DMSO or a compound of the present invention at a 5 μM for additional 24 h at 37° C. After incubation, cells were trypsinized, resuspended in 100 μl of homogenization buffer [25 mM Tris-HCl pH 7.4, 150 mM NaCl, 1 mM EDTA, 1 mM EGTA containing phosphatase inhibitors (30 mM NaF, 0.2 mM Na3VO4, 1 nM Okadaic acid, 1 mM PMSF, 5 mM Na4P2O7) and protease inhibitor cocktail (Complete™, Roche)], and then physically lysed with three rapid cycles of freezing and thawing. Samples were then directly tested in the AlphaLISA assay. Phosphorylated, aggregated, and total Tau were quantified by AlphaLisa using the following antibody pairs: • HT7-Acceptor beads+biotin (BT)-Tau13-Donor beads: Total Tau • HT7-Acceptor beads+biotin (BT)-HT7-Donor beads: Aggregated human Tau
The Tau13 (Abcam) was biotinylated using EZ-Link® NHS-PEO Solid Phase biotinylation kit (Thermo Scientific), while the HT7-biotin was from a commercial source (Thermo Scientific).
For each antibody pairs the concentration of acceptor beads and biotinylated antibodies was optimized. All samples were first tested in a dilution series in PBS in order to identify the linear range and optimal dilution for each sample and assay. For the final protocol, the following reagents were added in a 384-well white OptiPlate (PerkinElmer): • 5 μL of test diluted sample • 20 μL of the mixture biotin-mAb acceptor beads at the following final concentrations: • HT7-BT at 1.25 nM in combination with HT7-Acc beads at 10 μg/ml • Tau13-BT at 5 nM in combination with HT7-Acc beads at 2.5 μg/ml
After incubation of this mixture at room temperature for 1 h, 25 μL of Streptavidin Donor beads (Perkin Elmer) at 25 μg/mL were added in the dark. Plates were analyzed after 30 min incubation using the EnSpire Alpha instrument and EnSpire Workstation version 3.00. Data for aggregated Tau were normalized to total Tau and then expressed as percentage of the DMSO-treated cells.

T2 sequence (P10636 561-689): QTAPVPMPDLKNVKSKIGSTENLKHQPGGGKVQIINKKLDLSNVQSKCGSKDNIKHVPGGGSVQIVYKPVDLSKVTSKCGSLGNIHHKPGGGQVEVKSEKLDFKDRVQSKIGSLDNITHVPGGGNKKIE
T1 sequence (P10636 1-441 isoform P10636-8): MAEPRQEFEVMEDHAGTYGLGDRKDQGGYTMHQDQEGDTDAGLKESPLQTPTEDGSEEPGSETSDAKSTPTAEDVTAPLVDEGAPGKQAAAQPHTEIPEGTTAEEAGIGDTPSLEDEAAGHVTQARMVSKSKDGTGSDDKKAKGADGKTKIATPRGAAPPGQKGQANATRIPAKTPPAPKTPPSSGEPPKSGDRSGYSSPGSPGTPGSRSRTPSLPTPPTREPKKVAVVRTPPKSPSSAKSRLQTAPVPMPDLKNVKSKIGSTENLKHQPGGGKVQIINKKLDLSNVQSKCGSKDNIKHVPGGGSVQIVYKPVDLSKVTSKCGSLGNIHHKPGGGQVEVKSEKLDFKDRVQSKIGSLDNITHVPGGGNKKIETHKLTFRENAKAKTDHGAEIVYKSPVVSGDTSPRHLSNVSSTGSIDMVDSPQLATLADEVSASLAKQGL

Structure (SMILES)	pEC50 [1]	pEC50 [2]	inhibition at 5 µM [3] [%]
CN(C)c1nc2ccc(N3CCc4c(c5cc(F)ccc5n4C)C3)cc2s1 [Example 3]	4.60 to 5.00	> 5.00	–
Fc1ccc2[nH]c3c(c2c1)CN(c1ccc2nc(N4CCOCC4)sc2c1)CC3 [Example 6]	–	> 5.00	25 to 50
Fc1ccc2[nH]c3c(c2c1)CN(c1ccc2sc(N4CCOCC4)nc2c1)CC3 [Example 9]	> 5.00	> 5.00	–
CN(C)c1nc2ccc(N3CCc4[nH]c5ccc(F)cc5c4C3)cc2o1 [Example 13]	4.60 to 5.00	> 5.00	–
COc1ccc2c(c1)c1c(n2C)CCN(c2ccc3nc(N4CCOCC4)sc3c2)C1 [Example 16]	> 5.00	–	–
Cn1c2c(c3cc(F)cnc31)CN(c1ccc3nc(N4CCOCC4)sc3c1)CC2 [Example 17]	> 5.00	–	–
COc1ccc2[nH]c3c(c2c1)CN(c1ccc2nc(N4CCOCC4)oc2c1)CC3 [Example 18]	4.60 to 5.00	–	–
COc1ccc2[nH]c3c(c2c1)CN(c1ccc2nc(N4CCOCC4)sc2c1)CC3 [Example 19]	> 5.00	–	25 to 50
COc1ccc2c(c1)c1c(n2C)CCN(c2ccc3oc(N4CCOCC4)nc3c2)C1 [Example 21]	4.60 to 5.00	–	–
Cn1c2c(c3cc(F)ccc31)CN(c1ccc3sc(N4CCOCC4)nc3c1)CC2 [Example 22]	4.30 to 4.60	–	–
COc1ccc2[nH]c3c(c2c1)CN(c1ccc2sc(N4CCOCC4)nc2c1)CC3 [Example 23]	4.30 to 4.60	–	–
COc1ccc2[nH]c3c(c2c1)CN(c1ccc2oc(N4CCOCC4)nc2c1)CC3 [Example 24]	4.30 to 4.60	> 5.00	–
CC(C)Nc1nc2cc(N3CCc4c(c5cc(F)ccc5n4C)C3)ccc2s1 [Example 25]	> 5.00	–	–
CN(C)c1nc2cc(N3CCc4c(c5cc(F)ccc5n4C)C3)ccc2s1 [Example 28]	> 5.00	–	–
CN(C)c1nc2cc(N3CCc4c(c5cc(F)ccc5n4C)C3)ccc2o1 [Example 29]	> 5.00	–	–
COc1ccc2[nH]c3c(c2c1)CN(c1ccc2sc(N(C)C)nc2c1)CC3 [Example 30]	> 5.00	–	–
COc1ccc2c(c1)c1c(n2C)CCN(c2ccc3nc(N(C)C)sc3c2)C1 [Example 31]	> 5.00	–	–
COc1ccc2c(c1)c1c(n2C)CCN(c2ccc3sc(N(C)C)nc3c2)C1 [Example 32]	4.30 to 4.60	–	–
COc1ccc2c(c1)c1c(n2C)CCN(c2ccc3nc(N(C)C)oc3c2)C1 [Example 33]	> 5.00	–	–
CN(C)c1nc2ccc(N3CCc4c(c5cc(F)cnc5n4C)C3)cc2s1 [Example 34]	> 5.00	–	–
Cn1c2c(c3cc(F)cnc31)CN(c1ccc3oc(N4CCOCC4)nc3c1)CC2 [Example 36]	> 5.00	–	–
Cn1c2c(c3cc(F)cnc31)CN(c1ccc3nc(N4CCOCC4)oc3c1)CC2 [Example 39]	4.30 to 4.60	–	–
COc1ccc2[nH]c3c(c2c1)CN(c1ccc2nc(N(C)C)oc2c1)CC3 [Example 40]	4.60 to 5.00	–	–
CN(C)c1nc2cc(N3CCc4c(c5ccc(F)cc5n4C)C3)ccc2o1 [Example 42]	4.60 to 5.00	–	–
Fc1ccc2c3c([nH]c2c1)CCN(c1ccc2nc(N4CCOCC4)sc2c1)C3 [Example 43]	> 5.00	–	–
Fc1ccc2c3c([nH]c2c1)CCN(c1ccc2nc(N4CCOCC4)oc2c1)C3 [Example 44]	4.60 to 5.00	–	–

Structure (SMILES)	pEC50 [1]	pEC50 [2]	inhibition at 5 µM [3] [%]
Fc1ccc2oc3c(c2c1)CN(c1ccc2oc(N4CCOCC4)nc2c1)CC3 [Example 49]	> 5.00	–	–
Fc1cccc2[nH]c3c(c12)CN(c1ccc2sc(N4CCOCC4)nc2c1)CC3 [Example 52]	> 5.00	–	10 to 25
CN(C)c1nc2ccc(N3CCc4[nH]c5cc(F)ccc5c4C3)cc2s1 [Example 54]	> 5.00	–	–
CN(C)c1nc2ccc(N3CCc4[nH]c5cc(F)ccc5c4C3)cc2o1 [Example 55]	> 5.00	–	10 to 25
CN(C)c1nc2cc(N3CCc4[nH]c5cc(F)ccc5c4C3)ccc2o1 [Example 56]	> 5.00	–	–
Cn1c2c(c3ccc(F)cc31)CN(c1ccc3sc(N4CCOCC4)nc3c1)CC2 [Example 61]	> 5.00	–	–
Cn1c2c(c3ccc(F)cc31)CN(c1ccc3nc(N4CCOCC4)oc3c1)CC2 [Example 62]	> 5.00	–	–
Fc1ccc2c3c([nH]c2c1)CCN(c1ccc2sc(N4CCOCC4)nc2c1)C3 [Example 63]	> 5.00	–	–
Cn1c2c(c3ccc(F)cc31)CN(c1ccc3nc(N4CCOCC4)sc3c1)CC2 [Example 64]	> 5.00	–	10 to 25
Cn1c2c(c3ccc(F)cc31)CN(c1ccc3oc(N4CCOCC4)nc3c1)CC2 [Example 65]	> 5.00	–	–
CN(C)c1nc2ccc(N3CCc4c(c5ccc(F)cc5n4C)C3)cc2s1 [Example 67]	> 5.00	–	–
Fc1ccc2c3c([nH]c2c1)CCN(c1ccn2nc(N4CCOCC4)nc2c1)C3 [Example 70]	–	> 5.00	25 to 50
Fc1ccc2[nH]c3c(c2c1)CN(c1ccc(N2CCOCC2)nc1)CC3 [Example 74]	4.30 to 4.60	–	–
Cn1c2c(c3cc(F)ccc31)CN(c1ccc(N3CCOCC3)nc1)CC2 [Example 75]	4.60 to 5.00	–	–
COc1ccc(N2CCc3[nH]c4cc(F)ccc4c3C2)nc1 [Example 141]	–	4.60 to 5.00	–
C[C@@H]1CN(c2nc3cc(N4CCc5[nH]c6cc(F)ccc6c5C4)ccc3o2)C[C@H](C)O1 [Example 142]	–	> 5.00	–
CC(C)(C)Nc1nc2cc(N3CCc4[nH]c5cc(F)ccc5c4C3)ccc2o1 [Example 143]	–	> 5.00	–
Cn1c2c(c3ccccc31)CN(c1ccc3oc(N4CCOCC4)nc3c1)CC2 [Example 144]	–	> 5.00	–
CN1CCN(c2nc3cc(N4CCc5[nH]c6cc(F)ccc6c5C4)ccc3o2)CC1 [Example 145]	–	> 5.00	–
CCn1c2c(c3ccc(F)cc31)CN(c1ccc3oc(N4CCOCC4)nc3c1)CC2 [Example 146, 5-(5-ethyl-7-fluoro-3,4-dihydro-1H-pyrido[4,3-b]indol-2-yl)-2-morpholino-1,3-benzoxazole]	–	> 5.00	–
Cc1ccc(N2CCc3c(c4cc(F)ccc4n3C)C2)cc1O [Example 147]	–	> 5.00	–
COc1ccc(N2CCc3c(c4cc(F)ccc4n3C)C2)cc1 [Example 148]	–	> 5.00	–
Cn1c2c(c3cc(F)ccc31)CN(c1ccc(OCCO)cc1)CC2 [Example 149]	–	> 5.00	–
Cn1c2c(c3cc(F)ccc31)CN(c1ccc3cc(O)ccc3n1)CC2 [Example 150]	–	> 5.00	–
COc1cc(N2CCc3c(c4cc(F)ccc4n3C)C2)ccc1O [Example 151]	–	> 5.00	–
COc1cc(N2CCc3[nH]c4cc(F)ccc4c3C2)ccc1F [Example 152]	–	> 5.00	–
